The values that follow come from patent US20140256754A1, “QUINAZOLINES AS B-GLUCURONIDASE NOVEL INHIBITORS” (priority 2013, published 2014).

Like-named read-outs stand apart in the source and are kept apart here. A value given as a limit tells only on which side of the number the result lay.

One test deals with PC-3 cells. Nature of the test: MTT cytotoxicity assay against PC-3 cells. Particulars: read-out: IC50 (μM) ± SEM, 72 h. For orientation: Tetrazolium dyes change colour on reduction, which living cells bring about.
Another test deals with T1, β-glucuronidase (UniProt A3KMY8).
T1 sequence (A3KMY8 1-652): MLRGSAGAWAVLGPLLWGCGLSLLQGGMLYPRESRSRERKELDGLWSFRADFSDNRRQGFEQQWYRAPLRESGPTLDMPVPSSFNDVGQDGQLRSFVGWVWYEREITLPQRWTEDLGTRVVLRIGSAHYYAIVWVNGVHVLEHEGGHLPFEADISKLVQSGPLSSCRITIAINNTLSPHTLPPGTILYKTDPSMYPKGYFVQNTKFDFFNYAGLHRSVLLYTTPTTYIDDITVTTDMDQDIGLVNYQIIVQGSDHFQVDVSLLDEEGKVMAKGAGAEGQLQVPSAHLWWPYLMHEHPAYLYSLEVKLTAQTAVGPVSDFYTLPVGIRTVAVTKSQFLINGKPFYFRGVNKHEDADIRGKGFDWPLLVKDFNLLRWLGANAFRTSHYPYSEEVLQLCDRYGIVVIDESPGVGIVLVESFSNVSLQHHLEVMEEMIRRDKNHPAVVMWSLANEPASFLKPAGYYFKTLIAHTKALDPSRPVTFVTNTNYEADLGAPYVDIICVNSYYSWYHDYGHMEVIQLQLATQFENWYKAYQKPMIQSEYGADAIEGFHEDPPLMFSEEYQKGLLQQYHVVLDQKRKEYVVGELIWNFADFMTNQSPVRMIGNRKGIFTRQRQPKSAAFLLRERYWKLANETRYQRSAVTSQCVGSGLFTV
Description: β-Glucuronidase inhibition, spectrophotometric p-nitrophenyl-β-D-glucuronide assay. The class given is biochemical. Particulars: for % Inhibition: test concentration not given. Here is the method:
The total reaction volume was 250 μL. […] The reaction mixture contained 185 μL of 0.1 M acetate buffer, 5 μL of test compound solution, 10 μL of (1U) enzyme solution was incubated at 37° C. for 30 min. […] All assays were run in triplicate. IC50 Values were calculated by using EZ-Fit software (Perrella Scientific Inc., Amherst, Mass., USA). These values are the mean of three independent assays.

Where [1] appears, read: read-out: IC50 (μM) ± SEM, mean of three independent assays.

Description for PC-3 cells: For this purpose, PC-3 cells (Prostrate Cancer)/3T3(Mouse fibroblast) were cultured in Dulbecco's Modified Eagle's Medium, supplemented with 5% of foetal bovine serum (FBS), 100 IU/mL of penicillin and 100 μg/mL of streptomycin in 25 cm^3 flask and kept in 5% CO2 incubator at 37° C. Exponentially growing cells were harvested, counted with haemocytometer and diluted with a particular medium.
Subsequently, 100 μL of DMSO was added to each well. The extent of MTT reduction to formazan within cells was calculated by measuring the absorbance at 570 nm, using a microplate ELISA reader (Spectra Max plus, Molecular Devices, Calif., USA).

For orientation: IC50 means the concentration at which inhibition is half-maximal. The term % Inhibition denotes the share of the control response that was lost under treatment. Take `O=c1[nH]c(-c2ccccc2O)nc2ccccc12` [Compound 2, 2-(2-Hydroxyphenyl)quinazolin-4(3H)-one]: the IC50 with PC-3 cells was > 30 µM; on β-glucuronidase (setting [1]) it was 10 ± 0.54 µM. In addition, the “% Inhibition” value at β-glucuronidase is listed as 99.1%. `O=c1[nH]c(-c2ccc(O)cc2)nc2ccccc12` [Compound 3, 2-(4-Hydroxyphenyl)quinazolin-4(3H)-one]: the IC50 in the test on PC-3 cells is > 30 µM; on β-glucuronidase (setting [1]), 22.2 ± 0.31 µM. Moreover, the “% Inhibition” value on β-glucuronidase worked out at 99.6%. For `O=c1[nH]c(-c2cccc(O)c2)nc2ccccc12` [Compound 4, 2-(3-Hydroxyphenyl)quinazolin-4(3H )-one], the IC50 in the test on PC-3 cells was > 30 µM. Moreover, the “% Inhibition” value at β-glucuronidase is 78.5%. Consider `O=c1[nH]c(-c2ccc(O)c(O)c2)nc2ccccc12` [Compound 5, 2-(3,4-Dihydroxyphenyl)quinazolin-4(3H)-one], for which the IC50 in the test with PC-3 cells is > 30 µM. As to `O=c1[nH]c(-c2cc(O)ccc2O)nc2ccccc12` [Compound 6, 2-(2,5-Dihydroxyphenyl)quinazolin-4(3H)-one], in the test with PC-3 cells, the 50% inhibitory concentration (IC50) was > 30 µM. On to `COc1ccc(O)c(-c2nc3ccccc3c(=O)[nH]2)c1` [Compound 7, 2-[2-Hydroxy-5-(methyloxy)phenyl]quinazolin-4(3H)-one], for which, in the test with PC-3 cells, the IC50 was > 30 µM. As for `COc1ccc(-c2nc3ccccc3c(=O)[nH]2)cc1O` [Compound 8, 2-[3-Hydroxy-4-(methyloxy)phenyl]quinazolin-4(3H)-one], the IC50 was > 30 µM in the test with PC-3 cells and 2.8 ± 0.042 µM on β-glucuronidase (setting [1]). For the same compound, at β-glucuronidase, the “% Inhibition” value is 84.0%. The matching figures for `COc1ccc(-c2nc3ccccc3c(=O)[nH]2)cc1` [Compound 10, 2-[4-(Methyloxy)phenyl]quinazolin-4(3H)-one]: > 30 µM, 1.1 ± 0.05 µM and 99.7%. Turning to `COc1ccc(-c2nc3ccccc3c(=O)[nH]2)cc1OC` [Compound 11, 2-[3,4-Bis(methyloxy)phenyl]quinazolin-4(3H)-one], the IC50 with PC-3 cells was > 30 µM. For the compound `COc1cc(-c2nc3ccccc3c(=O)[nH]2)cc(OC)c1OC` [Compound 12, 2-[3,4,5-Tris(methyloxy)phenyl]quinazolin-4(3H)-one], the IC50 is > 30 µM in the test with PC-3 cells and 120 ± 2.54 µM against β-glucuronidase (unit inferred). Besides, at β-glucuronidase, the “% Inhibition” value was found to be 97.6%.

Take `CCOc1ccc(-c2nc3ccccc3c(=O)[nH]2)cc1` [Compound 13, 2-[4-(Ethyloxy)phenyl]quinazolin-4(3H)-one]: the IC50 with PC-3 cells was > 30 µM. The same measure, in the same setting: in the case of `CCOc1ccccc1-c1nc2ccccc2c(=O)[nH]1` [Compound 14, 2-[2-(Ethyloxy)phenyl]quinazolin-4(3H)-one] it was > 30 µM.

Consider `CCOc1cc(-c2nc3ccccc3c(=O)[nH]2)ccc1O` [Compound 15, 2-[3-(Ethyloxy)-4-hydroxyphenyl]quinazolin-4(3H)-one], for which, in the test on PC-3 cells, the IC50 was > 30 µM.

Turning to `O=c1[nH]c(-c2ccccc2Cl)nc2ccccc12` [Compound 16, 2-(2-Chlorophenyl)quinazolin-4(3H)-one], the IC50 in the test on PC-3 cells is > 30 µM.

For the compound `O=c1[nH]c(-c2ccc(Cl)cc2Cl)nc2ccccc12` [Compound 17, 2-(2,4-Dichlorophenyl)quinazolin-4(3H)-one], in the test with PC-3 cells, the 50% inhibitory concentration (IC50) was > 30 µM. Regarding `O=c1[nH]c(-c2c(Cl)cccc2Cl)nc2ccccc12` [Compound 18, 2-(2,6-Dichlorophenyl)quinazolin-4(3H)-one], the IC50 in the test on PC-3 cells is > 30 µM.

On to `O=c1[nH]c(-c2ccc(Cl)cc2)nc2ccccc12` [Compound 19, 2-(4-Chlorophenyl)quinazolin-4(3H)-one], for which the IC50 in the test on PC-3 cells was > 30 µM. Turning to `O=c1[nH]c(-c2ccccc2[N+](=O)[O-])nc2ccccc12` [Compound 20, 2-(2-Nitrophenyl)quinazolin-4(3H)-one], the IC50 in the test with PC-3 cells is > 30 µM. For the compound `O=c1[nH]c(-c2cccc([N+](=O)[O-])c2)nc2ccccc12` [Compound 21, 2-(3-Nitrophenyl)quinazolin-4(3H)-one], the IC50 with PC-3 cells is > 30 µM; at β-glucuronidase (setting [1]), 50.4 ± 1.4 µM. In addition, the “% Inhibition” value at β-glucuronidase is given as 95.1%. As for `O=c1[nH]c(-c2ccc([N+](=O)[O-])cc2)nc2ccccc12` [Compound 22, 2-(4-Nitrophenyl)quinazolin-4(3H)-one], the IC50 with PC-3 cells was > 30 µM; on β-glucuronidase (setting [1]) it was 20.1 ± 0.92 µM. Further, the “% Inhibition” value at β-glucuronidase came to 96.4%. The matching figures for `CN(C)c1ccc(-c2nc3ccccc3c(=O)[nH]2)cc1` [Compound 23, 2-[4-(Dimethylamino)phenyl]quinazolin-4(3H)-one]: > 30 µM, 5.5 ± 0.1 µM and 99.6%. On to `Cc1ccc(-c2nc3ccccc3c(=O)[nH]2)cc1` [Compound 24, 2-(4-Methylphenyl)quinazolin-4(3H)-one], for which, in the test on PC-3 cells, the concentration for half-maximal inhibition (IC50) is > 30 µM. Further, the “% Inhibition” value at β-glucuronidase was found to be 96.3%. Consider `O=c1[nH]c(-c2c(O)cccc2Br)nc2ccccc12` [Compound 25, 2-(2-Bromo-6-hydroxyphenyl)quinazolin-4(3H)-one], for which the IC50 with PC-3 cells is > 30 µM.
